According to ChEMBL document CHEMBL5390215, “SARS-CoV-2 papain-like protease (PLpro) inhibitory and antiviral activity of small molecule derivatives for drug leads” (Bioorg Med Chem Lett, 2023):

Experiments:
[1] = target: Replicase polyprotein 1ab (Severe acute respiratory syndrome-related coronavirus, UniProt P0C6X7); assay: Inhibition of SARS-CoV-1 papain-like protease
SARS-CoV-2 = assay: Antiviral activity against SARS-CoV-2 infected Chlorocebus sabaeus Vero E6 cells assessed as inhibition of viral replication; assay type: functional; conditions: Severe acute respiratory syndrome coronavirus 2, Vero C1008; read-out: ID50 (the source's name)
[2] = target: Replicase polyprotein 1ab (Severe acute respiratory syndrome coronavirus 2, UniProt P0DTD1); assay: Inhibition of SARS-CoV-2 papain-like protease
SARS-CoV = assay: Antiviral activity against SARS-CoV-1 infected Chlorocebus sabaeus Vero E6 cells assessed as inhibition of viral replication; assay type: functional; conditions: Severe acute respiratory syndrome-related coronavirus, Vero C1008; read-out: ID50 (the source's name)

Compound | IC50 [1] [µM] | IC50 (SARS-CoV-2) [µM] | IC50 [2] [µM] | IC50 (SARS-CoV) [µM]
COc1ccc(CNC(=O)C2CCN([C@H](C)c3cccc4ccccc34)CC2)cc1 | 0.56 | 17 | 0.92 | 10.2
COc1cccc(CNC(=O)C2CCN([C@H](C)c3ccc4ccccc4c3)CC2)c1 | 13.2 | 27 |  | 
CCCN(CCC)C(=O)c1ccc(C)c(C(=O)N[C@H](C)c2cccc3ccccc23)c1 |  | > 100 | > 100 | 
C[C@@H](NS(=O)(=O)c1ccc([N+](=O)[O-])cc1)c1cccc2ccccc12 |  | 56 | 6.3 | 
C[C@@H](NC(=O)[C@@H](Cc1c[nH]c2ccccc12)NC(=O)OC(C)(C)C)c1cccc2ccccc12 |  | 36 | > 100 | 
C[C@@H](NC(=O)[C@H](N)Cc1ccccc1)c1cccc2ccccc12 |  | 76 | > 100 | 
COc1ccc(C(=O)N[C@H](C)c2cccc3ccccc23)cc1N |  | > 100 | 35.2 | 
C[C@@H](NC(=O)[C@H](NC(=O)OC(C)(C)C)c1ccccc1)c1cccc2ccccc12 |  | > 100 | 13.3 | 
C[C@@H](NS(=O)(=O)c1cccc([N+](=O)[O-])c1)c1cccc2ccccc12 |  | 38 | 15.5 | 
C[C@@H](NC(=O)[C@@H](NC(=O)OC(C)(C)C)c1ccccc1)c1cccc2ccccc12 |  | > 100 | 13.2 | 
C[C@@H](NC(=O)[C@@H](Cc1ccccc1)NC(=O)OC(C)(C)C)c1cccc2ccccc12 |  | 38 | > 100 | 
C[C@@H](NS(=O)(=O)c1ccc(N)cc1)c1cccc2ccccc12 |  | > 100 | > 100 | 
Cc1ccc(C(=O)NC(C)C)cc1C(=O)N[C@H](C)c1cccc2ccccc12 |  | > 100 | > 100 | 
CCCN(CCC)C(=O)c1cccc(C(=O)N[C@H](C)c2cccc3ccccc23)c1 |  | 15 | 15.9 | 
C[C@@H](NS(=O)(=O)c1cccc(N)c1)c1cccc2ccccc12 |  | 64 |  | 
C[C@@H](NC(=O)[C@H](N)Cc1c[nH]c2ccccc12)c1cccc2ccccc12 |  | 31 | > 100 | 
COc1ccc([C@@H](C)NC(=O)c2cc(N)ccc2C)c2ccccc12 |  | 36 | > 100 | 
Cc1ccc(N)cc1C(=O)N[C@H](C)c1cccc2ccccc12 |  | 38 |  | 
CNCc1ccc(C)c(C(=O)N[C@H](C)c2cccc3ccccc23)c1 |  | 20 |  | 
Cc1ccc(CN)cc1C(=O)N[C@H](C)c1cccc2ccccc12 |  | 24 |  | 
